Drawing on PubChem BioAssay (NCI), this text covers GI50 and TGI for 9 compounds.

Test systems include HCT-15 colon; HOP-92 NSCLC; HS 578T breast; HT29 colon; MCF7 breast; MDA-MB-231 breast; NCI-H23 lung; RXF 393 renal; MOLT-4 leukemia; SR leukemia.
Common to all, as to assay: inhibition of tumour cell growth, NCI panel, 48 h

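Grown in 96-well plates, cells were treated for 48 hours with each compound at five concentrations. Insufficient inhibition: endpoint recorded as highest concentration tested. Here, GI50 denotes the concentration required for 50% inhibition of growth. TGI is the concentration that stops growth completely.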

In the case of `CS(=O)CCCCCN=C=S` (stereo not drawn), the GI50 with HCT-15 colon is 2.9 µM; in the assay with HOP-92 NSCLC it was 3.55 µM; in the assay with HS 578T breast it was 6.38 µM; with HT29 colon, 3.47 µM; in the assay on MCF7 breast, 2.3 µM; in the assay on MDA-MB-231 breast it was 4.76 µM. Moreover, the figures for the GI50 with NCI-H23 lung and in the assay on RXF 393 renal were 4.21 µM and 3.37 µM, respectively. In addition, the TGI with HCT-15 colon came to 12.1 µM; in the assay on HOP-92 NSCLC it was 9.52 µM; in the assay on HS 578T breast, 36 µM; in the assay with HT29 colon, 11.1 µM; with MCF7 breast, 13.2 µM; in the assay with MDA-MB-231 breast it was 17.4 µM. For the same compound, the values for the TGI with NCI-H23 lung and in the assay on RXF 393 renal were 24.5 µM and 9.45 µM, respectively.

Turning to `CC(=O)N1CC(Nc2ccc(OC(F)(F)F)cc2)=CC1=O`, the GI50 was 0.45 µM in the assay on HCT-15 colon; 3.11 µM in the assay on HS 578T breast; 0.482 µM in the assay on HT29 colon; 0.436 µM in the assay on MCF7 breast; 4.21 µM in the assay on MOLT-4 leukemia; 4.93 µM in the assay with NCI-H23 lung. Further, the GI50 is 1.65 µM with RXF 393 renal and 0.532 µM with SR leukemia. Besides, the TGI in the assay on HCT-15 colon is greater than 100 µM; in the assay with HS 578T breast it was greater than 100 µM; in the assay with HT29 colon, 28.6 µM; in the assay with MCF7 breast it was greater than 100 µM; with MOLT-4 leukemia, greater than 100 µM; in the assay with NCI-H23 lung it was greater than 100 µM. The TGI came out at 5.92 µM in the assay with RXF 393 renal and 52.2 µM with SR leukemia.

Consider `CSc1cnn(CCC#N)c(=O)n1`, for which the TGI with HS 578T breast, with HT29 colon, with MCF7 breast, in the assay with MDA-MB-231 breast, in the assay with MOLT-4 leukemia and in the assay with NCI-H23 lung was greater than 100 µM each time. The TGI with RXF 393 renal and in the assay on SR leukemia was greater than 100 µM in each case.

Take `COc1ccc(-c2ccc(/C=N/n3c(COc4ccccc4Cl)nn(CN4CCN(C)CC4)c3=S)o2)c([N+](=O)[O-])c1`: the GI50 with HCT-15 colon was 17.4 µM; in the assay with HOP-92 NSCLC, 21 µM; in the assay with HS 578T breast, 38.7 µM; in the assay with HT29 colon, 23.5 µM; in the assay with MCF7 breast, 12.9 µM; in the assay with MDA-MB-231 breast it was 14.6 µM. Further, the GI50 in the assay on NCI-H23 lung was 16.3 µM; with RXF 393 renal, 10.4 µM. The TGI with HCT-15 colon was determined as 38.3 µM; in the assay with HOP-92 NSCLC it was 70.7 µM; in the assay with HS 578T breast it was 81.4 µM; with HT29 colon, 55.9 µM; with MCF7 breast, 33.8 µM; in the assay with MDA-MB-231 breast, 37.5 µM. Further, the TGI is 31 µM in the assay on NCI-H23 lung and 25 µM with RXF 393 renal.

Turning to `Cc1ccc(C2NC(=S)NC3=C2CCOc2c3ccc3ccccc23)cc1` (stereo not drawn), the GI50 in the assay with HCT-15 colon is greater than 100 µM; in the assay with HOP-92 NSCLC it was 39.8 µM; in the assay with HS 578T breast, greater than 100 µM; in the assay with HT29 colon, 8 µM; in the assay with MCF7 breast, 32.4 µM; with MDA-MB-231 breast, 26.3 µM. For the same compound, the values for the GI50 with MOLT-4 leukemia, in the assay with NCI-H23 lung and with RXF 393 renal were 7.97 µM, greater than 100 µM and 4.83 µM, respectively. Besides, the TGI in the assay with HCT-15 colon, in the assay with HOP-92 NSCLC, in the assay on HS 578T breast, with HT29 colon, in the assay on MCF7 breast and in the assay with MDA-MB-231 breast was greater than 100 µM each time. For the same compound, the TGI in the assay with MOLT-4 leukemia, with NCI-H23 lung and with RXF 393 renal was greater than 100 µM in each case.

In the case of `NS(=O)(=O)c1cc2c(cc1Cl)NC(Cc1ccccc1)NS2(=O)=O` (stereo not drawn), the TGI with HCT-15 colon, in the assay on HOP-92 NSCLC, in the assay on HS 578T breast, with HT29 colon, in the assay with MCF7 breast and in the assay with MDA-MB-231 breast was greater than 100 µM in each case. For the same compound, the TGI with NCI-H23 lung, in the assay with RXF 393 renal and with SR leukemia was greater than 100 µM throughout.

As for `CN1CCCNc2c(c(=O)c2=O)NCCCN(C)CCCNc2c(c(=O)c2=O)NCCCN(C)CCCNc2c(c(=O)c2=O)NCCCN(C)CCCNc2c(c(=O)c2=O)NCCCN(C)CCCNc2c(c(=O)c2=O)NCCCN(C)CCCNc2c(c(=O)c2=O)NCCCN(C)CCCNc2c(c(=O)c2=O)NCCC1`, the GI50 is 5.19 µM with HCT-15 colon; 9.15 µM in the assay with HS 578T breast; 9.87 µM with HT29 colon; 6.52 µM with MCF7 breast; 4.42 µM in the assay on MDA-MB-231 breast; 9.7 µM with MOLT-4 leukemia. In addition, the GI50 in the assay on RXF 393 renal is 2.54 µM; with SR leukemia it was 12.1 µM. The TGI with HCT-15 colon was 22.5 µM; with HS 578T breast, 31.2 µM; with HT29 colon it was greater than 50 µM; with MCF7 breast it was 19.5 µM; with MDA-MB-231 breast it was 19.1 µM; with MOLT-4 leukemia, 45.2 µM. Moreover, the TGI in the assay with RXF 393 renal was 12.7 µM; in the assay on SR leukemia it was greater than 50 µM.

Consider `CC(=O)c1c(C(F)(F)F)n([O-])c2ccc(Cl)cc2[n+]1=O`, for which the GI50 with HCT-15 colon is 0.649 µM; with HOP-92 NSCLC, 1.23 µM; in the assay with HS 578T breast, 6.65 µM; in the assay on HT29 colon, 1.4 µM; in the assay on MCF7 breast, 0.216 µM; with MDA-MB-231 breast, 1.3 µM. Besides, the figures for the GI50 in the assay on NCI-H23 lung and in the assay with RXF 393 renal were 1.72 µM and 5.11 µM, respectively. The TGI is 4.05 µM in the assay on HCT-15 colon; 2.9 µM in the assay on HOP-92 NSCLC; greater than 26.5 µM with HS 578T breast; greater than 100 µM with HT29 colon; 3.27 µM in the assay with MDA-MB-231 breast; 1.54 µM in the assay on MOLT-4 leukemia. In addition, the TGI turned out to be 6.64 µM in the assay on NCI-H23 lung and 25.4 µM in the assay with RXF 393 renal.

Regarding `COc1ccccc1-n1c(-c2cc(O)ccc2C)cn2c3c(=O)[nH]c(=O)n(C)c3nc12`, the GI50 in the assay with HCT-15 colon was 54.7 µM; in the assay with HS 578T breast it was 0.567 µM; in the assay with HT29 colon it was 1.62 µM; in the assay on MCF7 breast it was greater than 100 µM; in the assay on MDA-MB-231 breast it was 3.06 µM; in the assay with MOLT-4 leukemia it was 85.9 µM. Besides, the values for the GI50 in the assay on NCI-H23 lung, in the assay with RXF 393 renal and in the assay on SR leukemia were 60.9 µM, 0.872 µM and 66 µM, respectively. The TGI with HCT-15 colon was greater than 100 µM; in the assay with HS 578T breast, 5.75 µM; in the assay on HT29 colon, 8.12 µM; in the assay with MCF7 breast, greater than 100 µM; in the assay with MDA-MB-231 breast, greater than 100 µM; in the assay on MOLT-4 leukemia, greater than 100 µM. For the same compound, the TGI is greater than 100 µM in the assay on NCI-H23 lung, 4.11 µM in the assay with RXF 393 renal and greater than 100 µM in the assay with SR leukemia.
